Several values for one entry are separate records, joined by “and”; a condition that tells them apart may be missing. Equal values may be shown once. Read-outs that look alike come from different tables or passages of the source.
Experiments:
recombinant mouse GALK1 = recombinant mouse GALK1 (Mus musculus, UniProt Q9R0N0); assay: mGALK1 biochemical activity assay (Kinase-Glo Plus, ATP depletion)
In short: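 Recombinant GALK1 (5 nM) with 100 μM galactose; GALK1 turnover read as ATP depletion by Kinase-Glo Plus luminescence. Reaction ran 1 h at room temperature before detection reagent was added.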

recombinant human GALK1 = recombinant human GALK1 (Homo sapiens, UniProt P51570); assay: hGALK1 biochemical activity assay (Kinase-Glo Plus, ATP depletion)
recombinant human GALK1, sequence (P51570 whole entry): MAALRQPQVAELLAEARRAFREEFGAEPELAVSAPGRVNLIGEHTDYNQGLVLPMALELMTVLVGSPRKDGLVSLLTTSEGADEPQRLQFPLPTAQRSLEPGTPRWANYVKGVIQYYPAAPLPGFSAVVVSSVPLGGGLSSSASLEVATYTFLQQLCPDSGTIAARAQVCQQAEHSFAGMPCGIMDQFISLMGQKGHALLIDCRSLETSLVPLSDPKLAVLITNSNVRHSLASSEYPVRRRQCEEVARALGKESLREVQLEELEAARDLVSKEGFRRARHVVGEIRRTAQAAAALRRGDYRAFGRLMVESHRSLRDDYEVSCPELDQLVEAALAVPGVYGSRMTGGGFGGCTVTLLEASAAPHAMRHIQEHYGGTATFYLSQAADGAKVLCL
In short: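 Turnover is measured as ATP depletion by Kinase-Glo Plus luminescence after a 1 h room-temperature reaction. Compounds span 11 concentrations, 57.4 μM–0.97 nM, in final 20 mM HEPES pH 8.0 with 5 mM MgCl2. The substrate solution held 35 μM ATP; the added solution held 5 nM human or mouse GALK1 and 100 μM galactose.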

[1] = rat microsomal stability (RLM); conditions: for half-life: rat, rat liver microsomes
[2] = aqueous kinetic solubility
PAMPA permeability = conditions: for Papp: PAMPA
hGALK1m [3] = biological target: T1, hGALK1m (Homo sapiens, UniProt P51570, E253A/K252A); assay: surface plasma resonance (SPR) binding; conditions: SPR at 4° C.
T1 construct: made in house; host or cells: E. coli HMS174
T1 sequence (P51570 whole entry K252A/E253A): as the sequence (P51570 whole entry) above, with K252A, E253A counted along it
Description: Further characterization of the two lead compounds thus far, Compound 1 and Compound 3, with surface plasma resonance (SPR), confirmed that these compounds bind to hGALK1m tightly. Their KDs were 23 nM and 12 nM respectively at 4° C. (FIGS. 4A and 3B). We attempted to co-crystalize these two compounds with hGALK1m, but only succeeded with Compound 1. […] Even with a fluorine substitution at C6 position, the benzoxazole ring of Compound 1 absolutely overlapped with that of Compound A (FIG. 4D). […] The decahydroquinazoline ring was opened in Compound 1, but the hydrogen bond between ketone group and Arg 105 remained intact, and Arg 105 moved closer to the ketone group in the crystal structure with Compound 1 (FIG. 4E). In addition, the amide's nitrogen atom formed a hydrogen bond with Tyr 109 (FIG. 4E), which could clarify why substituting the closed ring with opened amide structure improves the compound's activity. The isonicotinic acid moiety extended outside of the enzyme's active center and was solvent exposed (FIG. 4C).

hGALK1m [4] = biological target: T1, hGALK1m; assay: in vitro hGALK1 activity assay of the structure-based optimisation (Example 12, Tables 17-20); format: biochemical; conditions: for fold improvement of potency (IC50) versus parent compound: increase in potency relative to the unsubstituted parent
[5] = Tables 2-15, 35 μM ATP, 100 μM galactose, 1 h, bracketed figure after some values is undefined and not reported, read-out: mGALK IC50
[6] = recombinant mouse GALK1, Kinase-Glo Plus ATP depletion, read-out: mGALK
[7] = recombinant human GALK1, Kinase-Glo Plus ATP depletion, read-out: hGALK
[8] = ADME P: PAMPA permeability (class), Tables 17-19, class probably colour-coded, colour lost
[9] = Tables 18-19, read-out: Max Response (%)
[10] = Tables 18-20 and text of Example 12
[11] = Tables 2-15, 35 μM ATP, 100 μM galactose, 1 h, bracketed figure after some values (e.g. −1.2) is undefined and not reported, read-out: hGALK IC50
[12] = Tables 18-19 and text of Example 12

recombinant mouse GALK1, sequence (Q9R0N0 whole entry): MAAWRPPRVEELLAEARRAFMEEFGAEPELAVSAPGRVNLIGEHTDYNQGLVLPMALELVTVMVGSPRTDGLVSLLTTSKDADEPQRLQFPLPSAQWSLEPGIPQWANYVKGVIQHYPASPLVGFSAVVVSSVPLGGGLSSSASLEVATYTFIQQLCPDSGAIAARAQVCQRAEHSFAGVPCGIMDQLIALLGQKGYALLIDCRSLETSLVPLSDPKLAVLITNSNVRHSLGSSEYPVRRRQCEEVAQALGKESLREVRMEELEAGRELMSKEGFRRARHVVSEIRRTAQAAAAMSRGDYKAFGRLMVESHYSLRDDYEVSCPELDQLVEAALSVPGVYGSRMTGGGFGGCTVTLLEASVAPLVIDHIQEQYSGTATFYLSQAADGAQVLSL

CC1=C(C(=O)Nc2cc(C(=O)O)ccn2)C(c2ccccc2Cl)N=C(Nc2nc3ccc(F)cc3o2)N1 (racemic) [Compound 1, 2-(4-(2-chlorophenyl)-2-((6-fluorobenzo[d]oxazol-2-yl)amino)-6-methyl-1,4-dihydropyrimidine-5-carboxamido)isonicotinic acid]
IC50 (recombinant mouse GALK1; [5]): 4.32 µM | IC50 (recombinant mouse GALK1; [6]): 4.32 µM | IC50 (recombinant human GALK1; [7]): 0.68 µM | Metab. Stabil. (m) ([1]; microsomal half-life): >30 m | half-life [1]: < 10 min | Sol. [2]: 46.1 µg/mL | Papp (PAMPA permeability; [8]): < 10 ×10⁻⁶ cm/s | Papp (PAMPA permeability; Perm. (1 × 10^−6 cm/sec)): < 1 ×10⁻⁶ cm/s | Kd (hGALK1m [3]): 0.023 µM | Emax (hGALK1m [4]; [9]): 100% | IC50 (hGALK1m [4]; [10]): 0.26 µM | fold improvement of potency (IC50) versus parent compound (hGALK1m [4]): ~4 fold

CC1=C(C(=O)Nc2cc(C(=O)O)ccn2)C(c2ccccc2Cl)N=C(Nc2nc3cccc(N)c3o2)N1 (racemic) [Compound 3, 2(2-((7-aminobenzo[d]oxazol-2-yl)amino)-4-(2-chlorophenyl)-6-methyl-1,4-dihydropyrimidine-5-carboxamido)isonicotinic acid]
IC50 (recombinant mouse GALK1; [5]): 3.43 µM | IC50 (recombinant mouse GALK1; [6]): 3.43 µM | IC50 (recombinant human GALK1; [11]): 0.22 µM | IC50 (recombinant human GALK1; [7]): 0.22 µM | Metab. Stabil. (m) ([1]; microsomal half-life): >30 m | half-life [1]: < 10 min | Sol. [2]: >76 µg/mL | Papp (PAMPA permeability; [8]): < 10 ×10⁻⁶ cm/s | Papp (PAMPA permeability; Perm. (1 × 10^−6 cm/sec)): < 1 ×10⁻⁶ cm/s | Kd (hGALK1m [3]): 0.012 µM | Emax (hGALK1m [4]; [9]): 100% | IC50 (hGALK1m [4]; [10]): 0.077 µM | fold improvement of potency (IC50) versus parent compound (hGALK1m [4]): 13 fold

CC1=C(C(=O)Nc2cc(C(=O)O)ccn2)C(c2ccccc2Cl)N=C(Nc2nc3cccc(OC(F)(F)F)c3o2)N1 (stereo not shown) [Compound 21, 2-(4-(2-chlorophenyl)-6-methyl-2-((7-(trifluoromethoxy)benzo[d]oxazol-2-yl)amino)-1,4-dihydropyrimidine-5-carboxamido)isonicotinic acid]
mGALK IC50 (recombinant mouse GALK1; Tables 2-15, 35 μM ATP, 100 μM galactose, 1 h, bracketed figure after some values is undefined and not reported): inactive | mGALK (μM) (recombinant mouse GALK1; recombinant mouse GALK1, Kinase-Glo Plus ATP depletion): in- active | hGALK IC50 (recombinant human GALK1; Tables 2-15, 35 μM ATP, 100 μM galactose, 1 h, bracketed figure after some values (e.g. −1.2) is undefined and not reported): inactive | hGALK (μM) (recombinant human GALK1; recombinant human GALK1, Kinase-Glo Plus ATP depletion): in- active | Metab. Stabil. (m) ([1]; microsomal half-life): >30 m | half-life [1]: < 10 min | Sol. [2]: 47.8 µg/mL | Papp (PAMPA permeability; [8]): < 10 ×10⁻⁶ cm/s | change of potency versus parent compound (in words) (hGALK1m [4]): greatly compromised the potencies | Emax (hGALK1m [4]; [9]): 88% | IC50 (hGALK1m [4]; [12]): > 15 µM

CC1=C(C(=O)Nc2ccccc2)C(c2ccccc2Cl)N=C(Nc2nc3ccccc3o2)N1 (stereo not shown) [Compound 137, 2-(benzo[d]oxazol-2-ylamino)-4-(2-chlorophenyl)-6-methyl-N-phenyl-1,4-dihydropyrimidine-5-carboxamide]
IC50 (recombinant mouse GALK1; [5]): 13.7 µM | IC50 (recombinant mouse GALK1; [6]): 13.7 µM | IC50 (recombinant human GALK1; [11]): 10.9 µM | Metab. Stabil. (m) ([1]; microsomal stability half-life): 24 m | half-life [1]: < 10 min | Sol. ([2]; aqueous kinetic solubility): <1 µg/mL | Papp (PAMPA permeability; [8]): < 10 ×10⁻⁶ cm/s | Emax (hGALK1m [4]; 1 h, Table 17, read-out: Efficacy): 57% | IC50 (hGALK1m [4]; Table 17, amide group optimization, no unit in table): 6.9 µM | Emax (hGALK1m [4]; [9]): 100% | IC50 (hGALK1m [4]; [12]): 0.97 µM

CC1=C(C(=O)Nc2cc(C(=O)O)ccn2)C(c2ccccc2Cl)N=C(Nc2nc3cc(C)ccc3o2)N1 (stereo not shown) [Compound 4, 2-(4-(2-chlorophenyl)-6-methyl-2-((5-methylbenzo[d]oxazol-2-yl)amino)-1,4-dihydropyrimidine-5-carboxamido)isonicotinic acid]
IC50 (recombinant mouse GALK1; [5]): 3.06 µM | IC50 (recombinant mouse GALK1; [6]): 3.06 µM | IC50 (recombinant human GALK1; [11]): 1.37 µM | Metab. Stabil. (m) ([1]; microsomal half-life): >30 m | half-life [1]: < 10 min | Sol. [2]: <1 µg/mL | Perm. (1 × 10^−6 cm/sec) (PAMPA permeability): <1 1 × 10^−6 cm/sec | Papp (PAMPA permeability; [8]): < 10 ×10⁻⁶ cm/s | change of potency versus parent compound (in words) (hGALK1m [4]): slightly improved the potency | Emax (hGALK1m [4]; [9]): 100% | IC50 (hGALK1m [4]; [10]): 0.611 µM

CCn1cc(CNC(=O)C2=C(C)NC(Nc3nc4ccc(F)c(N)c4o3)=NC2c2ccc(C)cc2Cl)cn1 (racemic) [Compound 125, 2-((7-amino-6-fluorobenzo[d]oxazol-2-yl)amino)-4-(2-chloro-4-methylphenyl)-N-((1-ethyl-1H-pyrazol-4-yl)methyl)-6-methyl-1,4-dihydropyrimidine-5-carboxamide]
IC50 (recombinant mouse GALK1; [5]): 0.61 µM | IC50 (recombinant mouse GALK1; [6]): 0.61 µM | IC50 (recombinant human GALK1; [11]): 0.05 µM | IC50 (recombinant human GALK1; [7]): 0.05 µM | Metab. Stabil. (m) ([1]; microsomal stability half-life): 14.08 m | Sol. ([2]; aqueous kinetic solubility): <1 µg/mL | Papp (PAMPA permeability; Perm. (1 × 10^−6 cm/sec)): 410 ×10⁻⁶ cm/s | IC50 (hGALK1m [4]; [10]): 0.023 µM and 0.022 µM

CC1=C(C(=O)Nc2cc(C(=O)O)ccn2)C(c2ccccc2Cl)N=C(Nc2nc3ccc(Cl)cc3o2)N1 (stereo not shown) [Compound 14, 2-(2-((6-chlorobenzo[d]oxazol-2-yl)amino)-4-(2-chlorophenyl)-6-methyl-1,4-dihydropyrimidine-5-carboxamido)isonicotinic acid]
IC50 (recombinant mouse GALK1; [5]): 6.11 µM | IC50 (recombinant mouse GALK1; [6]): 6.11 µM | IC50 (recombinant human GALK1; [7]): 1.93 µM | Metab. Stabil. (m) ([1]; microsomal half-life): >30 m | half-life [1]: < 10 min | Sol. [2]: 6.3 µg/mL | Papp (PAMPA permeability; [8]): < 10 ×10⁻⁶ cm/s | Emax (hGALK1m [4]; [9]): 100% | IC50 (hGALK1m [4]; [12]): 2.25 µM | fold decrease of potency versus parent compound (hGALK1m [4]; loss of potency relative to the unsubstituted parent): more than 2 fold

COc1ccc2oc(NC3=NC(c4ccccc4Cl)C(C(=O)Nc4cc(C(=O)O)ccn4)=C(C)N3)nc2c1 (stereo not shown) [Compound 5, 2-(4-(2-chlorophenyl)-2-((5-methoxybenzo[d]oxazol-2-yl)amino)-6-methyl-1,4-dihydropyrimidine-5-carboxamido)isonicotinic acid]
IC50 (recombinant mouse GALK1; [5]): 12.2 µM | IC50 (recombinant mouse GALK1; [6]): 12.2 µM | IC50 (recombinant human GALK1; [7]): 6.85 µM | Metab. Stabil. (m) ([1]; microsomal half-life): >30 m | half-life [1]: < 10 min | Sol. [2]: >79 µg/mL | Perm. (1 × 10^−6 cm/sec) (PAMPA permeability): <1 1 × 10^−6 cm/sec | Papp (PAMPA permeability; [8]): < 10 ×10⁻⁶ cm/s | Emax (hGALK1m [4]; [9]): 100% | IC50 (hGALK1m [4]; [12]): 2 µM

CC1=C(C(=O)Nc2cc(C(=O)O)ccn2)C(c2cccc(S(N)(=O)=O)c2)N=C(Nc2nc3ccc(F)cc3o2)N1 (stereo not shown) [Compound 78, 2-(2-((6-fluorobenzo[d]oxazol-2-yl)amino)-6-methyl-4-(3-sulfamoylphenyl)-1,4-dihydropyrimidine-5-carboxamido)isonicotinic acid]
IC50 (recombinant mouse GALK1; [5]): 38.5 µM | IC50 (recombinant mouse GALK1; [6]): 38.5 µM | IC50 (recombinant human GALK1; [11]): 17.2 µM | IC50 (recombinant human GALK1; [7]): 17.2 µM | Metab. Stabil. (m) ([1]; microsomal half-life): >30 m | half-life [1]: < 10 min | Sol. [2]: >84 µg/mL | Papp (PAMPA permeability; [8]): < 10 ×10⁻⁶ cm/s | change of potency versus parent compound (in words) (hGALK1m [4]): significantly impaired the potency | Emax (hGALK1m [4]; [9]): 75% | IC50 (hGALK1m [4]; [12]): > 15 µM

Source: patent publication US20230158025A1 (UNIVERSITY OF UTAH RESEARCH FOUNDATION, priority 2020, published 2023)
